This test relates to BDF1 mice, P388 leukemia ip, median survival T/C. As to the kind of experiment: NCI In Vivo Anticancer Drug Screen. Data for tumor model P388 Leukemia (intraperitoneal) in B6D2F1 (BDF1) mice. The following applies: endpoint: median survival time, higher = longer survival. The essentials:
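Transplantable tumour in mice; compound vs vehicle dosing; survival scored; ratio of treated to control reported.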

[1] abbreviates: dose: 200.0 mg/kg/injection, schedule: Q01DX009 (ip), vehicle: saline.
The mark [2] stands for this setting: dose: 100.0 mg/kg/injection, schedule: Q01DX009 (ip), vehicle: saline with Tween-80.
The mark [3] stands for this setting: dose: 200.0 mg/kg/injection, schedule: Q01DX009 (ip), vehicle: saline with Tween-80.
[4] abbreviates: dose: 50.0 mg/kg/injection, schedule: Q01DX009 (ip), vehicle: saline with Tween-80.

“And” between values parts separate entries of the source, which are not always exact repeats. Equal entries are not always repeated. Toxic doses and inconclusive results are not listed.

Take `C/C=C(\C)C(=O)O[C@@H]1c2cc3c(cc2-c2c(cc(OC)c(OC)c2OC)[C@@H]2C(=O)OC[C@@H]12)OCO3`: the T/C was 100 % of control (dose: 1.0 mg/kg/injection, schedule: Q01DX009 (ip), vehicle: saline + alcohol); 90 % of control (dose: 1.3 mg/kg/injection, schedule: Q01DX009 (ip), vehicle: saline); 100 % of control (dose: 2.0 mg/kg/injection, schedule: Q01DX009 (ip), vehicle: saline + alcohol); 100 % of control (dose: 2.0 mg/kg/injection, schedule: Q01DX009 (ip), vehicle: saline); 100 % of control (dose: 3.0 mg/kg/injection, schedule: Q01DX009 (ip), vehicle: saline); 109 % of control (dose: 4.0 mg/kg/injection, schedule: Q01DX009 (ip), vehicle: saline + alcohol). Further, the T/C was 110 % of control (dose: 5.3 mg/kg/injection, schedule: Q01DX009 (ip), vehicle: saline with Tween-80); 158 % of control (dose: 7.11 mg/kg/injection, schedule: Q01DX009 (ip), vehicle: saline + alcohol); 118 % of control (dose: 8.0 mg/kg/injection, schedule: Q01DX009 (ip), vehicle: saline + alcohol); 110 % of control (dose: 8.0 mg/kg/injection, schedule: Q01DX009 (ip), vehicle: saline with Tween-80); 95 % of control (dose: 10.66 mg/kg/injection, schedule: Q01DX009 (ip), vehicle: saline + alcohol); 110 % of control (dose: 12.0 mg/kg/injection, schedule: Q01DX009 (ip), vehicle: saline with Tween-80). Also, the T/C is, setting by setting: (dose: 16.0 mg/kg/injection, schedule: Q01DX009 (ip), vehicle: saline + alcohol) 91 % of control; (dose: 21.4 mg/kg/injection, schedule: Q01DX009 (ip), vehicle: saline) 110 % of control; (dose: 24.0 mg/kg/injection, schedule: Q01DX009 (ip), vehicle: saline + alcohol) 100 % of control; (dose: 32.0 mg/kg/injection, schedule: Q01DX009 (ip), vehicle: saline) 115 % of control; (dose: 48.0 mg/kg/injection, schedule: Q01DX009 (ip), vehicle: saline) 100 % of control and 120 % of control; (dose: 72.0 mg/kg/injection, schedule: Q01DX009 (ip), vehicle: saline) 113 % of control. The T/C is 95 % of control (dose: 88.0 mg/kg/injection, schedule: Q01DX009 (ip), vehicle: saline); 95 % of control (dose: 108.0 mg/kg/injection, schedule: Q01DX009 (ip), vehicle: saline); 100 % of control (dose: 133.0 mg/kg/injection, schedule: Q01DX009 (ip), vehicle: saline); 90 % of control under setting [1].

As to `C/C=C(\C)C(=O)OC1C(C)C2(O)C(C=C(CO)CC3(O)C(=O)C(C)=CC32)C2C(C)(C)C12OC(=O)CCCCCCCCC` (stereo not given), the T/C is 98 % of control (dose: 0.01 mg/kg/injection, schedule: Q01DX009 (ip), vehicle: gum acacia); 90 % of control (dose: 0.01 mg/kg/injection, schedule: Q01DX009 (ip), vehicle: saline + alcohol); 118 % of control (dose: 0.01 mg/kg/injection, schedule: Q01DX009 (ip), vehicle: saline with Tween-80); 93 % of control (dose: 0.02 mg/kg/injection, schedule: Q01DX009 (ip), vehicle: gum acacia); 110 % of control (dose: 0.03 mg/kg/injection, schedule: Q01DX009 (ip), vehicle: Klucel (hydroxypropylcellulose) (HPC)); 111 % of control (dose: 0.03 mg/kg/injection, schedule: Q01DX009 (ip), vehicle: gum acacia). The T/C is, setting by setting: (dose: 0.03 mg/kg/injection, schedule: Q01DX009 (ip), vehicle: saline + alcohol) 93 % of control and 108 % of control; (dose: 0.06 mg/kg/injection, schedule: Q01DX009 (ip), vehicle: Klucel (hydroxypropylcellulose) (HPC)) 112 % of control; (dose: 0.06 mg/kg/injection, schedule: Q01DX009 (ip), vehicle: saline + alcohol) 90 % of control and 108 % of control; (dose: 0.12 mg/kg/injection, schedule: Q01DX009 (ip), vehicle: Klucel (hydroxypropylcellulose) (HPC)) 112 % of control; (dose: 0.25 mg/kg/injection, schedule: Q01DX009 (ip), vehicle: Klucel (hydroxypropylcellulose) (HPC)) 112 % of control; (dose: 0.25 mg/kg/injection, schedule: Q01DX009 (ip), vehicle: saline + alcohol) 163 % of control. Also, the T/C is 119 % of control (dose: 0.5 mg/kg/injection, schedule: Q01DX009 (ip), vehicle: Klucel (hydroxypropylcellulose) (HPC)) and 91 % of control (dose: 1.0 mg/kg/injection, schedule: Q01DX009 (ip), vehicle: Klucel (hydroxypropylcellulose) (HPC)).

On to `CCCC(O)C(C)(C)[N+](=O)[O-]` (stereo not given), for which the T/C is 99 % of control (dose: 6.25 mg/kg/injection, schedule: Q01DX009 (ip), vehicle: saline with Tween-80) and 89 % of control (dose: 12.5 mg/kg/injection, schedule: Q01DX009 (ip), vehicle: saline with Tween-80).

Regarding `ClC1=C(Cl)C(Cl)=C(Cl)C1=NN=C1C(Cl)=C(Cl)C(Cl)=C1Cl`, the T/C was 100 % of control (dose: 50.0 mg/kg/injection, schedule: Q01DX001 (ip), vehicle: saline with Tween-80); 95 % of control (dose: 100.0 mg/kg/injection, schedule: Q01DX001 (ip), vehicle: saline with Tween-80); 90 % of control (dose: 200.0 mg/kg/injection, schedule: Q01DX001 (ip), vehicle: saline with Tween-80).

On to `CC(C)C(O)(C(=O)NN)C(=O)NN`, for which the T/C was 100 % of control under setting [2]; 109 % of control under setting [3]; 100 % of control (dose: 400.0 mg/kg/injection, schedule: Q01DX009 (ip), vehicle: saline with Tween-80).

Consider `COc1ccc(CN)cc1OC`, for which the T/C was 100 % of control under setting [4], 91 % of control under setting [2] and 97 % of control under setting [3].

Turning to `CNC(=S)N/N=C\C(=N/NC(=S)NC)c1ccco1`, the T/C (dose: 15.0 mg/kg/injection, schedule: Q01DX009 (ip), vehicle: saline with Tween-80) is 100 % of control and the T/C (dose: 30.0 mg/kg/injection, schedule: Q01DX009 (ip), vehicle: saline with Tween-80) was 98 % of control.

Turning to `O=C(CC(c1ccccc1)C1CCCN(c2ccccc2)S1(=O)=O)c1ccccc1` (stereo not given), the T/C was 109 % of control under setting [4], 114 % of control under setting [2] and 97 % of control under setting [3].

With `CC(=O)Nc1cc2c3c(c1)CCN3CCC2`, the T/C (dose: 3.13 mg/kg/injection, schedule: Q01DX001 (ip), vehicle: saline with Tween-80) is 95 % of control; the T/C (dose: 6.25 mg/kg/injection, schedule: Q01DX001 (ip), vehicle: saline with Tween-80) is 95 % of control; the T/C (dose: 12.5 mg/kg/injection, schedule: Q01DX001 (ip), vehicle: saline with Tween-80) was 90 % of control.

In the case of `Cc1ccccc1C(c1ccccc1C)c1ccccc1C(=O)O`, the T/C by setting is: (dose: 100.0 mg/kg/injection, schedule: Q01DX001 (ip), vehicle: Klucel (hydroxypropylcellulose) (HPC)) 113 % of control; (dose: 100.0 mg/kg/injection, schedule: Q01DX009 (ip), vehicle: saline) 100 % of control; (dose: 100.0 mg/kg/injection, schedule: Q04DX003 (ip), vehicle: saline) 91 % of control; (dose: 200.0 mg/kg/injection, schedule: Q01DX001 (ip), vehicle: Klucel (hydroxypropylcellulose) (HPC)) 109 % of control; under setting [1], 104 % of control; (dose: 200.0 mg/kg/injection, schedule: Q04DX003 (ip), vehicle: saline) 100 % of control. Besides, the T/C was 109 % of control (dose: 400.0 mg/kg/injection, schedule: Q01DX001 (ip), vehicle: Klucel (hydroxypropylcellulose) (HPC)); 95 % of control (dose: 400.0 mg/kg/injection, schedule: Q01DX009 (ip), vehicle: saline); 100 % of control (dose: 400.0 mg/kg/injection, schedule: Q04DX003 (ip), vehicle: saline).

On to `Cc1oc(-c2ccccc2)nc1C(=O)O`, for which the T/C was 106 % of control (dose: 100.0 mg/kg/injection, schedule: Q04DX003 (ip), vehicle: saline with Tween-80); 100 % of control (dose: 200.0 mg/kg/injection, schedule: Q04DX003 (ip), vehicle: saline with Tween-80); 102 % of control (dose: 400.0 mg/kg/injection, schedule: Q04DX003 (ip), vehicle: saline with Tween-80).

Regarding `CNC(=S)N/N=C(\C)c1snc(C)c1Br`, the T/C reads like this: (dose: 25.0 mg/kg/injection, schedule: Q01DX009 (ip), vehicle: saline with Tween-80) 94 % of control; under setting [4], 103 % of control; under setting [2], 96 % of control.

For the origin of these results see PubChem BioAssay AID328 (DTP/NCI, 2004).
